Data from patent US6737383B1, “Herbicidal oxadiazolidines” (priority 1999, dated 2004).

Experiments:
bedstraw = experiment: Test B pre/postemergence bedstraw; assay type: in vivo, Galium aparine
Method in brief: (§1)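 Test chemicals in a non-phytotoxic solvent mixture with surfactant were sprayed preemergence onto planted seeds and postemergence onto plants 2 to 18 cm tall (1- to 4-leaf stage). After twelve to sixteen days in a greenhouse, injury was visually rated against untreated controls from 0 (no effect) to 10 (complete control).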

blackgrass = experiment: Test B pre/postemergence blackgrass; assay type: in vivo, Alopecurus myosuroides
Method in brief: as §1

surinam grass = experiment: Test B pre/postemergence surinam grass; assay type: in vivo, Brachiaria decumbens
Method in brief: as §1

corn = experiment: Test B pre/postemergence corn; assay type: in vivo, Zea mays
Method in brief: as §1

giant foxtail = experiment: Test B pre/postemergence giant foxtail; assay type: in vivo, Setaria faberii
Method in brief: as §1

morningglory = experiment: Test B pre/postemergence morningglory; assay type: in vivo, Ipomoea hederacea
Method in brief: as §1

pigweed = experiment: Test B pre/postemergence pigweed; assay type: in vivo, Amaranthus retroflexus
Method in brief: as §1

rape = experiment: Test B pre/postemergence rape; assay type: in vivo, Brassica napus
Method in brief: as §1

soybean = experiment: Test B pre/postemergence soybean; assay type: in vivo, Glycine max
Method in brief: as §1

sugar beet = experiment: Test B pre/postemergence sugar beet; assay type: in vivo, Beta vulgaris
Method in brief: as §1

velvetleaf = experiment: Test B pre/postemergence velvetleaf; assay type: in vivo, Abutilon theophrasti
Method in brief: as §1

purple nutsedge = experiment: Test B pre/postemergence purple nutsedge; assay type: in vivo, Cyperus rotundus
Method in brief: as §1

rice = experiment: Test B flood test rice; assay type: in vivo, Oryza sativa
Method in brief: (§2)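 Read-out is a visual response score from 0 (no effect) to 10 (complete control), assigned by comparison with untreated controls. Treatment was applied at the 2-leaf stage, and plants stayed in the greenhouse for twelve to sixteen days before scoring.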

smallflower flatsedge = experiment: Test B flood test smallflower flatsedge; assay type: in vivo, Cyperus difformis
Method in brief: as §2

duck salad = experiment: Test B flood test duck salad; assay type: in vivo, Heteranthera limosa
Method in brief: as §2

bamyardgrass = experiment: Test B flood test barnyardgrass; assay type: in vivo, Echinochloa crus-galli
Method in brief: as §2

[1] = Postemergence, Rate 62 g/ha, scale 0 to 10, 0 is no effect, 10 is complete control
[2] = Postemergence, Rate 250 g/ha, scale 0 to 10, 0 no effect, 10 complete control
[3] = Preemergence, Rate 62 g/ha, scale 0 to 10 (0 no effect, 10 complete control)
[4] = Preemergence, Rate 125 g/ha, scale 0 to 10 (0 no effect, 10 complete control)
[5] = Preemergence, Rate 250 g/ha, scale of 0 to 10 where 0 is no effect and 10 is complete control
[6] = Preemergence, Rate 500 g/ha, scale 0 (no effect) to 10 (complete control)
[7] = Rate 125 g/ha, Postemergence, scale 0 to 10, 0 no effect, 10 complete control
[8] = Rate 500 g/ha, Postemergence, scale 0 to 10, 0 no effect, 10 complete control
[9] = Postemergence, Rate 125 g/ha, scale of 0 to 10 where 0 is no effect and 10 is complete control
[10] = Rate 250 g/ha, Postemergence, scale 0 to 10, 0 is no effect, 10 is complete control
[11] = Postemergence (flood test species), Rate 125 g/ha, scale of 0 to 10 where 0 is no effect and 10 is complete control
[12] = Rate 250 g/ha, Postemergence (flood test), scale 0 to 10, 0 is no effect, 10 is complete control
[13] = Rate 500 g/ha, listed under Postemergence (flood test species), scale 0 to 10, 0 no effect, 10 complete control
[14] = flood test, listed under Postemergence, Rate 250 g/ha, scale 0 to 10, 0 no effect, 10 complete control

CCN(CC)C(=O)n1oc(=O)n(-c2cccc3c2CCCC3)c1=O [Compound 89]
3: Bedstraw plant response rating (bedstraw; [8]) | Velvetleaf plant response rating (velvetleaf; [8])
6: Sugarbeets plant response rating (sugar beet; [8])
1: Corn plant response rating (corn; [8]) | Soybean plant response rating (soybean; [8])
5: Redroot pigweed plant response rating (pigweed; [8])
2: Giant foxtail plant response rating (giant foxtail; [6]) | Giant foxtail plant response rating (giant foxtail; [8]) | Morningglory plant response rating (morningglory; [8])
0: Bedstraw plant response rating (bedstraw; [1]) | Bedstraw plant response rating (bedstraw; [2]) | Bedstraw plant response rating (bedstraw; [3]) | Plant response rating, Bedstraw (bedstraw; [4]) | Plant response rating, Bedstraw (bedstraw; [5]) | Bedstraw plant response rating (bedstraw; [6]) | Bedstraw plant response rating (bedstraw; [7]) | Blackgrass plant response rating (blackgrass; [1]) | Blackgrass plant response rating (blackgrass; [9]) | Blackgrass plant response rating (blackgrass; [2]) | Blackgrass plant response rating (blackgrass; [3]) | Plant response rating, Blackgrass (blackgrass; [4]) | Plant response rating, Blackgrass (blackgrass; [5]) | Blackgrass plant response rating (blackgrass; [6]) | Blackgrass plant response rating (blackgrass; [8]) | B. signalgrass plant response rating (surinam grass; [1]) | B. signalgrass plant response rating (surinam grass; [2]) | B. signalgrass plant response rating (surinam grass; [3]) | Plant response rating, B. signalgrass (surinam grass; [4]) | Plant response rating, B. signalgrass (surinam grass; [5]) | B. signalgrass plant response rating (surinam grass; [6]) | B. signalgrass plant response rating (surinam grass; [7]) | B. signalgrass plant response rating (surinam grass; Rate 500 g/ha, Postemergence, scale of 0 to 10 where 0 is no effect and 10 is complete control) | Corn plant response rating (corn; [1]) | Corn plant response rating (corn; [9]) | Corn plant response rating (corn; [2]) | Corn plant response rating (corn; [3]) | Plant response rating, Corn (corn; [4]) | Plant response rating, Corn (corn; [5]) | Corn plant response rating (corn; [6]) | Giant foxtail plant response rating (giant foxtail; [1]) | Giant foxtail plant response rating (giant foxtail; [9]) | Giant foxtail plant response rating (giant foxtail; [2]) | Giant foxtail plant response rating (giant foxtail; [3]) | Plant response rating, Giant foxtail (giant foxtail; [4]) | Plant response rating, Giant foxtail (giant foxtail; [5]) | Morningglory plant response rating (morningglory; [1]) | Morningglory plant response rating (morningglory; [9]) | Morningglory plant response rating (morningglory; [2]) | Morningglory plant response rating (morningglory; [3]) | Plant response rating, Morningglory (morningglory; [4]) | Plant response rating, Morningglory (morningglory; [5]) | Morningglory plant response rating (morningglory; [6]) | Redroot pigweed plant response rating (pigweed; [1]) | Redroot pigweed plant response rating (pigweed; [9]) | Redroot pigweed plant response rating (pigweed; [3]) | Plant response rating, Redroot pigweed (pigweed; [4]) | Plant response rating, Redroot pigweed (pigweed; [5]) | Redroot pigweed plant response rating (pigweed; [6]) | Plant response rating, Redroot pigweed (pigweed; [10]) | Rape plant response rating (rape; [1]) | Rape plant response rating (rape; [9]) | Rape plant response rating (rape; [2]) | Rape plant response rating (rape; [3]) | Plant response rating, Rape (rape; [4]) | Plant response rating, Rape (rape; [5]) | Rape plant response rating (rape; [6]) | Rape plant response rating (rape; [8]) | Soybean plant response rating (soybean; [1]) | Soybean plant response rating (soybean; [9]) | Soybean plant response rating (soybean; [3]) | Plant response rating, Soybean (soybean; [4]) | Plant response rating, Soybean (soybean; [5]) | Soybean plant response rating (soybean; [6]) | Plant response rating, Soybean (soybean; [10]) | Sugarbeets plant response rating (sugar beet; [1]) | Sugarbeets plant response rating (sugar beet; [9]) | Sugarbeets plant response rating (sugar beet; [3]) | Plant response rating, Sugarbeets (sugar beet; [4]) | Plant response rating, Sugarbeets (sugar beet; [5]) | Sugarbeets plant response rating (sugar beet; [6]) | Plant response rating, Sugarbeets (sugar beet; [10]) | Velvetleaf plant response rating (velvetleaf; [1]) | Velvetleaf plant response rating (velvetleaf; [9]) | Velvetleaf plant response rating (velvetleaf; [3]) | Plant response rating, Velvetleaf (velvetleaf; [4]) | Plant response rating, Velvetleaf (velvetleaf; [5]) | Velvetleaf plant response rating (velvetleaf; [6]) | Plant response rating, Velvetleaf (velvetleaf; [10]) | Nutsedge plant response rating (purple nutsedge; [1]) | Nutsedge plant response rating (purple nutsedge; [9]) | Nutsedge plant response rating (purple nutsedge; [2]) | Nutsedge plant response rating (purple nutsedge; [3]) | Plant response rating, Nutsedge (purple nutsedge; [4]) | Plant response rating, Nutsedge (purple nutsedge; [5]) | Nutsedge plant response rating (purple nutsedge; [6]) | Nutsedge plant response rating (purple nutsedge; [8]) | Rice plant response rating (rice; [11]) | Rice plant response rating (rice; [1]) | Plant response rating, Rice (rice; [12]) | Rice plant response rating (rice; [13]) | S. Flatsedge plant response rating (smallflower flatsedge; [11]) | S. Flatsedge plant response rating (smallflower flatsedge; [1]) | Plant response rating, S. Flatsedge (smallflower flatsedge; [12]) | S. Flatsedge plant response rating (smallflower flatsedge; [13]) | Ducksalad plant response rating (duck salad; [11]) | Ducksalad plant response rating (duck salad; [1]) | Ducksalad plant response rating (duck salad; [13]) | Ducksalad plant response rating (duck salad; [14]) | Barnyardgrass plant response rating (bamyardgrass; [1]) | Barnyardgrass plant response rating (bamyardgrass; Rate 125 g/ha, Postemergence section (flood test species), scale 0 to 10, 0 no effect, 10 complete control) | Barnyardgrass plant response rating (bamyardgrass; [13]) | Barnyardgrass plant response rating (bamyardgrass; [14])
